Literature values, collected in patent publication US20240226204A9 (priority 2021, published 2024).

Tested on: COVID-19
Conditions: human, in vivo

Row | Compound | mortality | efficacy / antiviral effect in clinical use against COVID-19
1 | C[C@@H]1C[C@H]2[C@@H]3CCC4=CC(=O)C=C[C@]4(C)[C@@]3(F)[C@@H](O)C[C@]2(C)[C@@]1(O)C(=O)CO [dexamethasone] | increase in mortality | 
2 | CCN(CCO)CCCC(C)Nc1ccnc2cc(Cl)ccc12 (stereo not drawn) [hydroxychloroquine] |  | lack of efficacy
3 | lopinavir-ritonavir |  | lack of efficacy
